Test results: patent US20030207813A1, “Retroviral protease inhibitor combinations” (priority 1995, published 2003)
≈ marks a conversion by molar mass, not a printed value. Like-named read-outs stand apart in the source and are kept apart here.

What was measured:
[1] = system: 89-959R (resistant strains selected from 89-959 against Example 2); assay: Acute infectivity assay in PHA-activated donor lymphocytes, resistant isolate 89-959R; type: cell-based, HIV-1; conditions: Human immunodeficiency virus 1, Lymphocyte, read-out: Virus Isolate (EC50 ng/mL) 89-959R
Protocol: (§1) Approximately 3×10^7 cells are activated for 48 hours with about 3-5 μg/ml PHA in RPMI continuing 10% fetal bovine serum and IL-2 (10 U/ml). Quantitated virus stocks are added to the activated lymphocyte suspension at a multiplicity of infection of about 0.001-0.01. The cell-virus suspension is incubated at 37° C. for 2 hours to allow virus absorption. The residual virus inoculum is removed by centrifugation and the cells are resuspended in RPMI containing 10% FBS and 10 U/ml IL-2. These infected cells are added to the test-article diluted in complete tissue culture medium from a stock (10 mg/ml) in DMSO in 96 well microtiter plates to give about 5×10^5 cells per well per 200 μl. Infected, untreated cells and cells treated with DMSO alone (0.1%) or either AZT or DDI were used as controls. The cultures were examined for syncytia formation on days 7 and 11 post-infection or the supernants tested for reverse transcriptase activity or p24 antigen.
(§2) RF represents the HIV-1 strain HIV-LRF and RFR represents a mixture of resistant strains obtained by selection of RF against the compound of Example 1. RFR comprises a mixture of viral strains having protease genotypes of G48V (14/40 clones); G48V, V82A (18/40 clones); G48V, L90S (2/40 clones); G48V, 154T, V82A (1/40 clones); G48M (1/40 clones); G48V, Q61H (1/40 clones); V13I, G48V (1/40 clones); G48V, F53L, V82A (1/40 clones); and G48V, V82A, C95Y (1/40 clones). RFR2 represents a mixture of resistant strains obtained by cloning RFR by three rounds of growth at limiting dilution. RFR2 comprises a mixture of viral strains having protease genotypes of G48V, V82A (13/15 clones); G17E, G48V, V82A (1/15 clones); and G48V, V82A, N37D, N88D (1/15 clones). RFRR represents a mixture of resistant strains obtained by selection of RF against the compounds of Examples 1 and 2 and then cloning by three rounds of growth at limiting dilution. RFRR comprises a mixture of viral strains having protease genotypes of G48V, 154T, L63P, V82A (7/9 clones); G48V, 154T, L63P, V82A, N88S (1/9 clones); and G48V, 154T, L63P, G73M, V82A (1/9 clones). SF162 represents the HIV-1 strain SF-162 and SF162R represents a mixture of resistant strains obtained by selection of SF162 against the compound of Example 1. SF162R comprises a mixture of viral strains having protease genotypes of M461, F53L, L63P, A71V, N88D (2/3 clones); and M46I, F53L, L63P, A71V, N88D, Q92R (1/3 clones). 89-959 represents the HIV-1 strain 89-959 and 89-959R represents a mixture of resistant strains obtained by selection of 89-959 against the compound of Example 2. 89-959R comprises a mixture of viral strains having protease genotypes of N88S (4/5 clones); and D25N, T26A, D30N, D37N, R41K, G73D, R87K, N88S (1/4 clones). NL4 represents the HIV-1 strain HIV-1NL4-3. NL4(G48V) represents a strain having a synthetically generated site-directed mutation in the protease from glycine to valine at amino acid position number 48. NL4(I84V) represents a strain having a synthetically generated site-directed mutation in the protease from isoleucine to valine at amino acid position number 84. NL4(R8Q,M46I) represents a strain having synthetically generated site-directed mutations in the protease from arginine to glutamine at amino acid position number 8 and methionine to isoleucine at amino acid position number 46. NL4(P22-538) represents a mixture of resistant strains obtained by selection of HIV-1NL4-3 against the compound of Example 10 after 22 passages comprising protease genotypes M46I, L63P, A71V, V82F, I84V (4/10); M46I, L63P, V82F, I84V (3/10); and M46I, A71V, V82F, I84V (3/10). NL4(P37-538) represents resistant strains obtained by selection of HIV-1NL4-3 against the compound of Example 10 after 37 passages comprising protease genotype M46I, L63P, A71V, 184A. NL4(538/524) represents resistant strains obtained by selection of NL4(P22-538) against the compound of Example 5 after 24 passages comprising protease genotype M46I, L63P, A71V, 184A. […]

[2] = system: HIV-1 strain 89-959; assay: Acute infectivity assay in PHA-activated donor lymphocytes, isolate 89-959; type: cell-based; conditions: Human immunodeficiency virus 1, Lymphocyte, Table 3, footnote marks show values of the same experiment, read-out: Virus Isolate (EC50 ng/mL) 89-959
Protocol: as §1, §2

[3] = system: HIV-1 strain SF-162; assay: Acute infectivity assay in PHA-activated donor lymphocytes, isolate SF162; type: cell-based; conditions: Human immunodeficiency virus 1, Lymphocyte
Protocol: as §1, §2

[4] = Table 1, read-out: Virus Isolate (EC50 ng/mL) SF162
[5] = Table 2, read-out: Virus Isolate (EC50 ng/mL) SF162

Row | SMILES | EC50 ([1]; Table 3, (experiment ‡)) [ng/mL] | EC50 ([1]; Table 3, experiments † and §) [ng/mL] | EC50 [2] [ng/mL] | EC50 [3, 4] [ng/mL] | EC50 [3, 5] [ng/mL]
1 | CC(C)CN(C[C@@H](O)[C@H](Cc1ccccc1)NC(=O)[C@H](CC(N)=O)NC(=O)c1ccc2ccccc2n1)C(=O)NC(C)(C)C (relative stereo) [Example 1, [1S-[1R*(R*),2S*]]-N^1-[3-[[[(1,1-dimethylethyl)amino]carbonyl])2-methylpropyl)amino]-2-hydroxy-1-(phenylmethyl)propyl]-2-[(2-quinolinylcarbonyl)amino]-butanediamide] | 37 (≈ 0.0612 µM) | 5 (≈ 0.00827 µM) | 96 (≈ 0.159 µM) | 31 (≈ 0.0513 µM) | 2 (≈ 0.00331 µM)
2 | CC(C)CCN(C[C@@H](O)[C@H](Cc1ccccc1)NC(=O)[C@H](CC(N)=O)NC(=O)c1ccc2ccccc2n1)C(=O)NC(C)(C)C (relative stereo) [Example 7, [1S-[1R*(R*),2S*]]-N^1-[3-[[[(1,1-dimethylethyl)amino]carbonyl](3-methylbutyl)amino]-2-hydroxy-1-(phenylmethyl)propyl]-2-[(2-quinolinylcarbonyl)amino]-butanediamide] | – | 12 (≈ 0.0194 µM) | 13 (≈ 0.021 µM) | – | 1 (≈ 0.00162 µM)
3 | CC(C)(C)NC(=O)[C@@H]1CC2CCCC[C@@H]2CN1C[C@@H](O)[C@H](Cc1ccccc1)NC(=O)[C@H](CC(N)=O)NC(=O)c1ccc2ccccc2n1 (stereo in doubt) [Example 6, N-tert-Butyl decahydro-2-[2(R)-hydroxy-4-phenyl-3(S)-[[N-(2-quinolylcarbonyl)-L-asparaginyl]amino]butyl]-(4aR,8aS)-isoquinoline-3(S)-carboxamide] | 6 (≈ 0.00894 µM) | – | 4 (≈ 0.00596 µM) | 2 (≈ 0.00298 µM) | –
4 | CNCC(=O)N[C@H](C(=O)N[C@@H](Cc1ccccc1)[C@H](O)CN(CCC(C)C)C(=O)NC(C)(C)C)C(C)(C)C [Example 2, (2R,3S)-3-(N-methylaminoacetyl-L-tert-butylglycinyl)amino-1-(N-isoamyl-N-(tert-butylcarbamoyl))amino-4-phenyl-2-butanol] | 872 (≈ 1.63 µM) | 395 (≈ 0.74 µM) | 100 (≈ 0.187 µM) | 2 (≈ 0.00375 µM) | –
5 | CC(C)(C)NC(=O)[C@@H]1CN(Cc2cccnc2)CCN1C[C@@H](O)C[C@@H](Cc1ccccc1)C(=O)N[C@H]1c2ccccc2C[C@H]1O [Example 5, N-(2(R)-Hydroxy-1(S)-indanyl)-2(R)-phenylmethyl-4(S)-hydroxy-5-(1-(4-(3-pyridylmethyl)-2(S)-N′-(t-butylcarboxamido)-piperazinyl))-pentaneamide] | 38 (≈ 0.0619 µM) | 5 (≈ 0.00815 µM) | 36 (≈ 0.0587 µM) | 4 (≈ 0.00652 µM) | –
6 | CC(C)CN(C[C@@H](O)[C@H](Cc1ccccc1)NC(=O)[C@H](CC(N)=O)NC(=O)c1ccc2ccccc2n1)S(=O)(=O)NC(C)(C)C [Example 8, N-[3-[N^2-[N^1-(1,1-dimethylethyl)aminosulfonyl]-N^2-(2-methylpropyl)amino]-2R-hydroxy-1S-(phenylmethyl)propyl]-2S-[(2-quinolinylcarbonyl)amino]butanediamide] | – | 11 (≈ 0.0172 µM) | 12 (≈ 0.0187 µM) | – | 1 (≈ 0.00156 µM)
